Test results reported in patent US20220411372A1, “SMALL-MOLECULE INHIBITORS FOR THE B-CATENIN/B-CELL LYMPHOMA 9 PROTEIN-PROTEIN INTERACTION” (H. Lee Moffitt Cancer Center and Research Institute, Inc., priority 2019, published 2022).
pKi: −log10 of the molar value. Like-named read-outs stand apart in the source and are kept apart here.

Biological target: T1, β-catenin/BCL9 PPI (Homo sapiens, UniProt P35222)
T1 construct: Full-length β-catenin (residues 1-781) were cloned into a pET-28b vector; made in house; host or cells: E. coli BL21 DE3 (β-catenin); BCL9 peptide synthesized by InnoPep Inc
T1 sequence (P35222 1-781): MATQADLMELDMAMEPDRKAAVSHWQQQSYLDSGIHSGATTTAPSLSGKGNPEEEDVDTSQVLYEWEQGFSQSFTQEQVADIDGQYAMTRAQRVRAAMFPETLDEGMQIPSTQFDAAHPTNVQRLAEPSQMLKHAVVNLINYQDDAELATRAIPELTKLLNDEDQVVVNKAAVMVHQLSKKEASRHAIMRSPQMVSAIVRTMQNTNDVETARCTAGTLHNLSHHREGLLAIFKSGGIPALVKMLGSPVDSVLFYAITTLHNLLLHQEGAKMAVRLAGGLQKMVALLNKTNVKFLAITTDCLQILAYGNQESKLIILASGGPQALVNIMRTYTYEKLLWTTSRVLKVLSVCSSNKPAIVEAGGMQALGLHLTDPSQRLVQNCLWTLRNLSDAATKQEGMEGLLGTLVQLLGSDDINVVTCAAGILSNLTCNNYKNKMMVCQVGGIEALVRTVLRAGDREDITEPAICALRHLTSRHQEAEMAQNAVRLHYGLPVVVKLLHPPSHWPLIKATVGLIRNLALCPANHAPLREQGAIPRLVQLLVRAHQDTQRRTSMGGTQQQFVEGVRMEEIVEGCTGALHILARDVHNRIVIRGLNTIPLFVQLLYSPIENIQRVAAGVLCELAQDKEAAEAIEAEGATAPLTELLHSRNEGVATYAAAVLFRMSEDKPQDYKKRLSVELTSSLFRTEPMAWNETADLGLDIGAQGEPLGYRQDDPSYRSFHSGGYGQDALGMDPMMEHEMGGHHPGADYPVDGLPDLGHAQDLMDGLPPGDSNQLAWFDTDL
Experiment: AlphaScreen competitive inhibition assay of the β-catenin/BCL9 PPI
Assay type: binding
Experimental: AlphaScreen Assays of β-Catenin and BCL9 Interaction. Experiments were performed in white opaque 384-well plates from PerkinElmer (Waltham, Mass.), and the samples were read on a Synergy 2 plate reader (Biotek, Winooski, Vt.) with excitation at 680 nm and emission at 570 nm. The standard AlphaScreen protocol was used with a sensitivity setting of 200. All dilutions were made in 1× assay buffer containing 25 mM Hepes (pH 7.4), 100 mM NaCl, 0.01% Triton X-100 and 0.1% BSA to minimize nonspecific interactions.
For the β-catenin/BCL9 assay, 5 nM biotinylated BCL9 and 40 nM His6-tagged β-catenin were incubated in assay buffer at 4° C. for 30 min. For the β-catenin/E-cadherin assay, 10 nM biotinylated human E-cadherin, and 40 nM His6-tagged human β-catenin were added and incubated in assay buffer at 4° C. for 30 min. Different concentrations of the tested inhibitor were added and incubated in 20 μL assay buffer at 4° C. for another 1 h. All of the assay plates were covered and gently mixed on an orbital shaker. The donor and acceptor beads were then added to the plates to a final concentration of 10 μg/mL in […]. The mixture was incubated for 1 h at 4° C. before detection. The IC50 value was determined by nonlinear least-square analysis of GraphPad Prism 5.0. […] All of the experiments were performed in triplicate and carried out in the presence of 1% DMSO for small-molecule inhibitors. Each compound was assayed at least by two independent experiments. The results were expressed as mean±standard deviation. The inhibitor selectivity for β-catenin/BCL9 over β-catenin/E-canderin interactions was defined as the ratio of the respective Ki value of β-catenin/E-cadherin interactions over that of β-catenin/BCL9 interactions.

[1] = Table 8, inhibitors 82-92, read-out: Ki
[2] = Table 3, inhibitors 27-43, read-out: Ki

Compound: CC(C)(Oc1cccc(N2CCC[C@@H](C(=O)N(Cc3ccc(-c4cn[nH]c4)cc3OCCN)C3CC3)C2)c1)C(=O)N1CCNCC1 [Compound 89, (R)-4-(2-(3-(3-((2-(2-ammonioethoxy)-4-(1H-pyrazol-4-yl)benzyl)(cyclopropyl)carbamoyl)piperidin-1-yl)phenoxy)-2-methylpropanoyl)piperazin-1-ium chlorine]
- pKi [1]: > 4.05

Compound: CC(C)(Oc1cccc(N2CCC[C@@H](C(=O)N(Cc3ccc(-c4c[nH]c5ccccc45)cc3)C3CC3)C2)c1)C(=O)N1CCNCC1 [Compound 42, (R)-4-(2-(3-(3-((4-(1H-indol-3-yl)benzyl)(cyclopropyl)carbamoyl)piperidin-1-yl)phenoxy)-2-methylpropanoyl)piperazin-1-ium]
- pKi [2]: > 5.30

Compound: CCOCCN(Cc1ccc(-c2cn[nH]c2)cc1)C(=O)[C@@H]1CCCN(c2cccc(OC(C)(C)C(=O)N3CCNCC3)c2)C1.Cl [Compound 52, (R)-4-(2-(3-(3-((4-(1H-pyrazol-4-yl)benzyl)(2-ethoxyethyl)carbamoyl)piperidin-1-yl)phenoxy)-2-methylpropanoyl)piperazin-1-ium chloride]
- pKi (Table 4, right half, inhibitors 49-53, read-out: Ki ± SD): > 5.30
- inhibitory activity (SAR, AlphaScreen) (linear alkyl R1 substitutions, FIG. 4A): maintained the inhibitory activities

Compound: CC(C)(Oc1cccc(N2CCC[C@@H](C(=O)N3CCc4cc(-c5ccccc5)ccc4C3)C2)c1)C(=O)N1CCNCC1 [Compound 91, (R)-4-(2-methyl-2-(3-(3-(6-phenyl-1,2,3,4-tetrahydroisoquinoline-2-carbonyl)piperidin-1-yl)phenoxy)propanoyl)piperazin-1-ium chlorine]
- pKi [1]: > 5.30

Compound: O=C([C@@H]1CCCN(c2cccc(OC3(C(=O)N4CCNCC4)CC3)c2)C1)N(Cc1ccc(-c2cn[nH]c2)cc1)C1CC1 [Compound 82, (R)-4-(1-(3-(3-((4-(1H-pyrazol-4-yl)benzyl)(cyclopropyl)carbamoyl)piperidin-1-yl)phenoxy)cyclopropane-1-carbonyl)piperazin-1-ium chloride]
- pKi [1]: > 5.00

Compound: (R)-2-(3-(3-(cyclopropyl(4-isopropylbenzyl)carbamoyl)piperidin-1-yl)phenoxy)-2-methylpropanoic acid [Compound 98]
- pKi (Table 9, inhibitors 93-98, racemic, read-out: Ki): ≥ 4.05

Compound: CC(C)c1ccc(CN(C)C(=O)[C@H]2CCCN(c3cccc(OC(C)(C)C(=O)N4CCNCC4)c3)C2)cc1 [Compound 20, (S)-4-(2-(3-(3-((4-isopropylbenzyl)(methyl)carbamoyl)piperidin-1-yl)phenoxy)-2-methylpropanoyl)piperazin-1-ium chloride]
- pKi (Table 2, inhibitors 15-26, read-out: Ki): ≥ 5.00

Compound: CC(C)(Oc1cccc(N2CCC[C@@H](C(=O)N(Cc3ccc(-c4ccncc4)cc3)C3CC3)C2)c1)C(=O)N1CCNCC1 [Compound 35, (R)-4-(2-(3-(3-(cyclopropyl(4-(pyridin-4-yl)benzyl)carbamoyl)piperidin-1-yl)phenoxy)-2-methylpropanoyl)piperazin-1-ium chloride]
- pKi [2]: > 4.05

Compound: CC(C)N(Cc1ccc(-c2cn[nH]c2)cc1)C(=O)[C@@H]1CCCN(c2cccc(OC(C)(C)C(=O)N3CCNCC3)c2)C1 [Compound 47, (R)-4-(2-(3-(3-((4-(1H-pyrazol-4-yl)benzyl)(isopropyl)carbamoyl)piperidin-1-yl)phenoxy)-2-methylpropanoyl)piperazin-1-ium chloride]
- pKi (Table 4, left half, inhibitors 44-48, read-out: Ki): > 5.00

Compound: CC(C)(Oc1cccc(N2CCC[C@@H](C(=O)N(Cc3ccc(-c4ccsc4)cc3)C3CC3)C2)c1)C(=O)N1CCNCC1 [Compound 32, (R)-4-(2-(3-(3-(cyclopropyl(4-(thiophen-3-yl)benzyl)carbamoyl)piperidin-1-yl)phenoxy)-2-methylpropanoyl)piperazin-1-ium chloride]
- pKi [2]: > 5.30

Compound: CC(C)c1ccc(CCNC(=O)[C@@H]2CCCN(c3cccc(OC(C)(C)C(=O)O)c3)C2)cc1 [Compound 13, (R)-2-(3-(3-((4-isopropylphenethyl)carbamoyl)piperidin-1-yl)phenoxy)-2-methylpropanoic acid]
- pKi (Table 1, inhibitors 1-14, read-out: Ki): ≥ 4.30
